Data on ten molecules can be found in ChEMBL document CHEMBL1201862, “PubChem BioAssay data set” (2004).

Each structure is given as a SMILES string.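 All cell lines were grown in 96-well plates and treated with compound for 48 hours. GI50: concentration for 50% inhibition of growth.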 Active and inactive are the calls of the source. Cut-off read from the data, not from the text of the source: active = GI50 up to about 1.1 µM and inactive = higher.

Test systems include NCI-H23; SW-620; NCI/ADR-RES; HCT-116; SNB-19; PC-3; OVCAR-4; MDA-MB-231; SF-539; KM12; SK-OV-3; BT-549; T47D; U-251; HL-60; UACC-257; SF-295; ACHN; HCT-15; OVCAR-5.
Assay in all cases: growth of human tumour cells (NCI), 48 h

For `COc1ccc(CC2C(=O)NC(C)C(=O)N(C)C3C(=O)N(C)C(Cc4ccc(O)c(c4)Oc4ccc(cc4)C3O)C(=O)NC(C)C(=O)NC(C)C(=O)N2C)cc1` (stereo not drawn), the GI50 is 0.016 µM (active) in the test with NCI-H23; 0.0181 µM (active) with SW-620; 0.212 µM (active) with NCI/ADR-RES; 0.00181 µM (active) in the test on HCT-116; 0.00392 µM (active) with SNB-19; 0.01 µM (active) with PC-3. The GI50 with OVCAR-4 was 0.00664 µM (active); in the test on MDA-MB-231 it was < 0.01 µM (active); in the test with SF-539, 0.0136 µM (active); in the test on KM12 it was 0.00215 µM (active); in the test on SK-OV-3, 0.0236 µM (active); in the test on BT-549, < 0.01 µM (active). The GI50 with T47D is < 0.01 µM (active); with U-251, 0.00124 µM (active); in the test on HL-60 it was 0.00308 µM (active); in the test with UACC-257, 0.0071 µM (active); in the test with SF-295, 0.0138 µM (active); with ACHN, 0.0891 µM (active). Moreover, the GI50 in the test with HCT-15 was 0.658 µM; in the test on OVCAR-5, 0.0303 µM (active).

For `COc1cc(Nc2nc3c(N)cc(C(F)(F)F)cc3nc2-c2ccccc2)cc(OC)c1OC`, the GI50 in the test on NCI-H23 is 70.3 µM (inactive); in the test with SW-620, > 90.4 µM (inactive); in the test with NCI/ADR-RES, > 53.2 µM (inactive); in the test with HCT-116, > 74.3 µM (inactive); with SNB-19 it was 25.8 µM (inactive); with PC-3 it was 37.2 µM (inactive). Also, the GI50 with OVCAR-4 was 15 µM (inactive); with MDA-MB-231, > 42.5 µM (inactive); in the test on SF-539 it was 28.1 µM (inactive); in the test on KM12, 72.8 µM (inactive); in the test with SK-OV-3 it was 42.5 µM (inactive); in the test with BT-549, 35.5 µM (inactive). Further, the GI50 in the test with T47D was 14.1 µM (inactive); in the test on U-251, 26.1 µM (inactive); in the test with HL-60 it was > 100 µM (inactive); in the test on UACC-257, 63 µM (inactive); with SF-295, 16.6 µM (inactive); with ACHN it was 42.9 µM (inactive). For the same molecule, the values for the GI50 in the test with HCT-15 and with OVCAR-5 were greater than 94.6 µM and > 100 µM (inactive), respectively.

In the case of `C=CCOC1=C(OC(C)=O)C(=O)OC1C1COC(C)(C)O1` (stereo not drawn), the GI50 is 31.5 µM (inactive) in the test with NCI-H23; 25.6 µM (inactive) in the test on SW-620; > 61.5 µM (inactive) with NCI/ADR-RES; 26.2 µM (inactive) in the test on HCT-116; > 74.3 µM (inactive) in the test on SNB-19; > 57.3 µM (inactive) in the test with PC-3. For the same molecule, the GI50 in the test with OVCAR-4 was 17.2 µM (inactive); in the test on MDA-MB-231, 38.4 µM (inactive); in the test on SF-539 it was 37.1 µM (inactive); with KM12, 34.2 µM (inactive); in the test on SK-OV-3, > 100 µM (inactive); in the test with BT-549, 43.1 µM (inactive). Besides, the GI50 with T47D is 23.4 µM (inactive); in the test with U-251 it was 42.5 µM (inactive); in the test on HL-60, 18.5 µM (inactive); with UACC-257, 60.3 µM (inactive); in the test on SF-295, 79.1 µM (inactive); in the test on ACHN, 21.6 µM (inactive). Besides, the values for the GI50 with HCT-15 and in the test with OVCAR-5 were 19.5 µM and 60 µM (inactive), respectively.

Regarding `S=P(C1CCCCC1)(C1CCCCC1)C(c1cccnc1)N1CCCC1` (stereo not drawn), the GI50 in the test with NCI-H23 was 18.7 µM (inactive); in the test with SW-620 it was 36.2 µM (inactive); in the test with NCI/ADR-RES, 19 µM (inactive); with HCT-116 it was 18.5 µM (inactive); in the test on SNB-19 it was 83.2 µM (inactive); with PC-3 it was 18.3 µM (inactive). For the same molecule, the GI50 with OVCAR-4 was 21.5 µM (inactive); in the test with MDA-MB-231, 18.6 µM (inactive); in the test with SF-539, 16.7 µM (inactive); in the test with KM12, 17.5 µM (inactive); in the test on SK-OV-3 it was 81.8 µM (inactive); with BT-549 it was 18.5 µM (inactive). For the same molecule, the GI50 with T47D was 31.9 µM (inactive); in the test with U-251, 20.2 µM (inactive); in the test on HL-60, 18.1 µM (inactive); with UACC-257, > 100 µM (inactive); in the test with SF-295, 21.2 µM (inactive); in the test with ACHN it was 20.3 µM (inactive). Further, the GI50 in the test on HCT-15 is 35.7 µM; in the test on OVCAR-5, 36.1 µM (inactive).

As for `O=[N+]([O-])c1ccc(Cl)c(CNc2ncnc3c2ncn3C2CCCCO2)c1` (stereo not drawn), the GI50 is 31.8 µM (inactive) in the test with NCI-H23; 35 µM (inactive) in the test with SW-620; 25.1 µM (inactive) with NCI/ADR-RES; 43.2 µM (inactive) in the test on HCT-116; 61.1 µM (inactive) in the test with SNB-19; 39.3 µM (inactive) in the test with PC-3. The GI50 was 54.1 µM (inactive) with OVCAR-4; 32.9 µM (inactive) in the test on MDA-MB-231; 22.8 µM (inactive) in the test on SF-539; 66.7 µM (inactive) in the test with KM12; 36.5 µM (inactive) in the test on SK-OV-3; 41.2 µM (inactive) in the test on BT-549. Besides, the GI50 in the test with T47D is 55.3 µM (inactive); in the test with U-251 it was 32.5 µM (inactive); in the test on HL-60, 26.8 µM (inactive); in the test with SF-295 it was 52 µM (inactive); with ACHN, 44.9 µM (inactive); with HCT-15 it was 33.9 µM. In the test on OVCAR-5, the GI50 is > 100 µM (inactive).

On to `O=C(CC(=O)Nc1ccccc1Cl)NNC(Sc1ccccc1)c1cc(/N=N/c2ccc(Br)cc2)ccc1O` (stereo not drawn), for which the GI50 in the test with NCI-H23 was 1.85 µM (inactive); in the test with SW-620, 0.69 µM (active); with NCI/ADR-RES it was 1.28 µM (inactive); in the test on HCT-116, 0.387 µM (active); in the test with SNB-19 it was 4.06 µM (inactive); in the test on PC-3 it was 0.571 µM (active). Moreover, the GI50 is 1.86 µM (inactive) in the test with OVCAR-4; 2.22 µM (inactive) in the test with MDA-MB-231; 1.45 µM (inactive) in the test with SF-539; 1.35 µM (inactive) in the test with KM12; 3.03 µM (inactive) with SK-OV-3; 1.66 µM (inactive) in the test on BT-549. Besides, the GI50 with T47D is 2.02 µM (inactive); in the test with U-251 it was 1.59 µM (inactive); in the test with HL-60 it was 0.315 µM (active); with UACC-257, 2.37 µM (inactive); in the test with SF-295, 1.88 µM (inactive); with ACHN, 1.36 µM (inactive). Moreover, the GI50 in the test with HCT-15 is 0.679 µM; in the test on OVCAR-5 it was 3.01 µM (inactive).

`CCCCCCCCCCCCCCCCCCNc1ccn(C2OC(COP(=O)(O)OCC3OC(n4cc(C)c(=O)[nH]c4=O)CC3F)C(O)C2O)c(=O)n1` (stereo not drawn): the GI50 was 8.65 µM (inactive) with NCI-H23; 5.86 µM (inactive) in the test on SW-620; 30.9 µM (inactive) in the test on NCI/ADR-RES; 10.2 µM (inactive) in the test on HCT-116; 6.5 µM (inactive) in the test on SNB-19; 1.61 µM (inactive) with PC-3. Besides, the GI50 with OVCAR-4 was 9.02 µM (inactive); with MDA-MB-231, 10.7 µM (inactive); in the test on SF-539 it was 9.46 µM (inactive); in the test with KM12 it was 5.22 µM (inactive); in the test with SK-OV-3, 8.63 µM (inactive); in the test with BT-549 it was 5.19 µM (inactive). For the same molecule, the GI50 is 7.38 µM (inactive) in the test with T47D; 7.26 µM (inactive) with U-251; 5.46 µM (inactive) with HL-60; 10.4 µM (inactive) in the test with UACC-257; 9.89 µM (inactive) in the test with SF-295; 13 µM (inactive) in the test on ACHN. The GI50 was 6.01 µM with HCT-15 and 2.56 µM (inactive) in the test on OVCAR-5.

For the molecule `COc1ccc(C(=O)/C=C2\Nc3cccnc3N\C2=C/C(=O)c2ccc(OC)cc2)cc1`, the GI50 was 13.5 µM (inactive) in the test on NCI-H23; 17.4 µM (inactive) in the test with NCI/ADR-RES; 15.2 µM (inactive) in the test with HCT-116; 18.7 µM (inactive) in the test on SNB-19; > 100 µM (inactive) with PC-3; 2.67 µM (inactive) in the test with OVCAR-4. Moreover, the GI50 was 13.5 µM (inactive) in the test on MDA-MB-231; 12.5 µM (inactive) in the test with SF-539; 23.4 µM (inactive) in the test with KM12; 13 µM (inactive) in the test on SK-OV-3; 18.8 µM (inactive) with BT-549; 11.5 µM (inactive) in the test on T47D. The GI50 in the test on U-251 was 14.6 µM (inactive); in the test with HL-60, > 100 µM (inactive); with UACC-257 it was 26.7 µM (inactive); in the test on SF-295 it was 16.9 µM (inactive); in the test with ACHN it was 17.7 µM (inactive); in the test with HCT-15, 32.1 µM. Also, in the test on OVCAR-5, the GI50 was 42.3 µM (inactive).

As for `Cc1ccc(N(Cc2ccccc2)Cc2ccccc2)cc1`, the GI50 is > 100 µM (inactive) with NCI-H23; 46.3 µM (inactive) in the test with SW-620; > 100 µM (inactive) in the test with NCI/ADR-RES; 28.6 µM (inactive) with HCT-116; > 100 µM (inactive) in the test on SNB-19; 48.4 µM (inactive) in the test on PC-3. In addition, the GI50 with OVCAR-4 is 32.7 µM (inactive); in the test with MDA-MB-231 it was > 100 µM (inactive); in the test with SF-539, > 100 µM (inactive); in the test with KM12, 29.5 µM (inactive); in the test with SK-OV-3, > 100 µM (inactive); in the test with BT-549, > 100 µM (inactive). For the same molecule, the GI50 was 30.9 µM (inactive) with T47D; 65.9 µM (inactive) in the test on U-251; 51.4 µM (inactive) with HL-60; 42.4 µM (inactive) in the test with UACC-257; 35.1 µM (inactive) with SF-295; > 100 µM (inactive) in the test with ACHN. In addition, the GI50 in the test on HCT-15 is 40.9 µM; in the test with OVCAR-5, > 100 µM (inactive).

With `COc1ccc(Cc2ccc3nc(O)cc(C)c3c2)cc1S(=O)(=O)O`, the GI50 in the test with NCI-H23, in the test on SW-620, with NCI/ADR-RES, in the test on HCT-116, with SNB-19 and in the test on PC-3 was > 100 µM (inactive) in each case. Besides, the GI50 in the test on OVCAR-4, with MDA-MB-231, with SF-539, with KM12, in the test on SK-OV-3 and with BT-549 was > 100 µM (inactive) each time. Also, the GI50 in the test on T47D, in the test with U-251, in the test with HL-60, with UACC-257, with SF-295 and in the test with ACHN was > 100 µM (inactive) throughout. Also, the GI50 is greater than 100 µM in the test on HCT-15 and > 100 µM (inactive) with OVCAR-5.
